ChEMBL document CHEMBL3526086, “Identification of the oxidative and conjugative enzymes involved in the biotransformation of brivanib” (Drug Metab Dispos, 2012)

Tests used:
Format in all cases: ADME
Cytochrome P450 1B1 = Cytochrome P450 1B1 (Homo sapiens, UniProt Q16678); test: Drug metabolism assessed as human CYP1B1-mediated (R)-1-(4-(4-fluoro-2-(hydroxymethyl)-1H-indol-5-yloxy)-5-methylpyrrolo[1,2-f][1,2,4]triazin-6-yloxy)propan-2-ol formation at 2 and 20 uM for 20 mins by LC/MS analysis in presence of NADPH; conditions: recombinant enzyme
Chain of Cytochrome P450 1B1 (Q16678 whole entry): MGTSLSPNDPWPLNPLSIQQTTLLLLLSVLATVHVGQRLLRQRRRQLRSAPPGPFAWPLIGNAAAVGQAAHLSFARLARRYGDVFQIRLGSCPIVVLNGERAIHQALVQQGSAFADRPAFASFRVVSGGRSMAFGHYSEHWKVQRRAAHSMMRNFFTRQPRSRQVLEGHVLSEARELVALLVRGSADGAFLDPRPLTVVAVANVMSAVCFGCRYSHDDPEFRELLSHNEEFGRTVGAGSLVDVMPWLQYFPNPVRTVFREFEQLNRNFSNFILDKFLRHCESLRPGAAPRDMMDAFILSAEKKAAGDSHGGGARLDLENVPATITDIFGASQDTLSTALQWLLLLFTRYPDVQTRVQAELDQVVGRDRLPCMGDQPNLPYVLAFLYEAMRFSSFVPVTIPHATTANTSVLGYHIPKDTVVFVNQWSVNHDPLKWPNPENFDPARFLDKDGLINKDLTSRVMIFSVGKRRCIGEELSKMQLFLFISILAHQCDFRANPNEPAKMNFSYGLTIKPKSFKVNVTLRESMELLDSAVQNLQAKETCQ

Cytochrome P450 2D6 [1] = target: T1, Cytochrome P450 2D6 (Homo sapiens, UniProt P10635); test: Drug metabolism assessed as human CYP2D6-mediated (R)-1-(4-(4-fluoro-2-(hydroxymethyl)-1H-indol-5-yloxy)-5-methylpyrrolo[1,2-f][1,2,4]triazin-6-yloxy)propan-2-ol formation at 2 and 20 uM for 20 mins by LC/MS analysis in presence of NADPH; conditions: recombinant enzyme
T1 sequence (P10635 whole entry): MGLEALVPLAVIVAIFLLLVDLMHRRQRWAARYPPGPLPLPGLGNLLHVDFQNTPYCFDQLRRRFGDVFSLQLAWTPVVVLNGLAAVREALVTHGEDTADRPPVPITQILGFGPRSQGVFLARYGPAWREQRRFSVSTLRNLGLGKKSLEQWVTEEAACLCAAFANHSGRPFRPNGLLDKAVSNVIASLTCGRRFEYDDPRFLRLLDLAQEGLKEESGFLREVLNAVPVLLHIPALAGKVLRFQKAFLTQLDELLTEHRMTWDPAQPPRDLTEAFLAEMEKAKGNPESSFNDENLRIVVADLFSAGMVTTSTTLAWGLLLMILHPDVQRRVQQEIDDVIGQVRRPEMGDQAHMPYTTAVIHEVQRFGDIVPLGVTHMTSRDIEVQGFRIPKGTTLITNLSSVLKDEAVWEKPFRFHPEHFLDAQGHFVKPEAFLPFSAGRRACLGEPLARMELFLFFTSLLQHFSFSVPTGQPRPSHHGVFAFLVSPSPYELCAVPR

Cytochrome P450 2C19 = Cytochrome P450 2C19 (Homo sapiens, UniProt P33261); test: Drug metabolism assessed as human CYP2C19-mediated (R)-1-(4-(4-fluoro-2-(hydroxymethyl)-1H-indol-5-yloxy)-5-methylpyrrolo[1,2-f][1,2,4]triazin-6-yloxy)propan-2-ol formation at 2 and 20 uM for 20 mins by LC/MS analysis in presence of NADPH; conditions: recombinant enzyme
Chain of Cytochrome P450 2C19 (P33261 whole entry): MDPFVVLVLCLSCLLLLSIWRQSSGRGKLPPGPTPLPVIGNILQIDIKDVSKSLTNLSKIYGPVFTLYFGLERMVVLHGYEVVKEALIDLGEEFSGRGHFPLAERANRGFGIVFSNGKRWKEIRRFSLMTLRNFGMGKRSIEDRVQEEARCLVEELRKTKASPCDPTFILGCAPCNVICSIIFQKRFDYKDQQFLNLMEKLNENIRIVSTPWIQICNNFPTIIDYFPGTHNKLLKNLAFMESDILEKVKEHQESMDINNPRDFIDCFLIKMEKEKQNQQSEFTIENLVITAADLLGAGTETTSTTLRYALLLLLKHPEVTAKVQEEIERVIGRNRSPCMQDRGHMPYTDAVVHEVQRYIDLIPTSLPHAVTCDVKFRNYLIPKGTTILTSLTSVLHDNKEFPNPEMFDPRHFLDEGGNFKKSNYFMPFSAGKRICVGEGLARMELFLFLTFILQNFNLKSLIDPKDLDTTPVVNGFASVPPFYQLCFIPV

Cytochrome P450 1A2 = target: T2, Cytochrome P450 1A2 (Homo sapiens, UniProt P05177); test: Drug metabolism assessed as human CYP1A2-mediated (R)-1-(4-(4-fluoro-2-(hydroxymethyl)-1H-indol-5-yloxy)-5-methylpyrrolo[1,2-f][1,2,4]triazin-6-yloxy)propan-2-ol formation at 2 and 20 uM for 20 mins by LC/MS analysis in presence of NADPH; conditions: recombinant enzyme
T2 sequence (P05177 whole entry): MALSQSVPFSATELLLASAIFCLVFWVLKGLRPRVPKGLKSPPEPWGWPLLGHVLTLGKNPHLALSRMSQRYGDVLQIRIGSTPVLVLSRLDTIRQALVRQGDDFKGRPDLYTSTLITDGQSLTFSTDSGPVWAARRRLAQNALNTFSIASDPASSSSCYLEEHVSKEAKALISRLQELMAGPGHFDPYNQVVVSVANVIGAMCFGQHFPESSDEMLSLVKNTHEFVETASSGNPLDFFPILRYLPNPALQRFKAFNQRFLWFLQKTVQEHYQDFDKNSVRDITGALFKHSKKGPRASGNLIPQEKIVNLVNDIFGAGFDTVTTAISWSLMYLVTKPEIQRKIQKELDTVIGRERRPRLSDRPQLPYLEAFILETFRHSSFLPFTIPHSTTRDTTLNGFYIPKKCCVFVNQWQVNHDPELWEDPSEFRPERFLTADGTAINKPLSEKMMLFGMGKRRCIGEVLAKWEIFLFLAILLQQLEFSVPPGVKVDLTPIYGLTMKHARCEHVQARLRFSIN

[2] = Activity of CYP3A4/CYP1A2 in human liver microsomes assessed as enzyme-mediated (R)-1-(4-(4-fluoro-2-(hydroxymethyl)-1H-indol-5-yloxy)-5-methylpyrrolo[1,2-f][1,2,4]triazin-6-yloxy)propan-2-ol formation per mg protein in presence of NADPH
Cytochrome P450 2D6 [3] = target: T1, Cytochrome P450 2D6; test: Drug metabolism in human liver microsomes assessed as 1 uM quinidine-mediated inhibition of CYP2D6-mediated(R)-1-(4-(4-fluoro-2-(hydroxymethyl)-1H-indol-5-yloxy)-5-methylpyrrolo[1,2-f][1,2,4]triazin-6-yloxy)propan-2-ol formation at 2 and 20 uM for 30 mins by LC/MS analysis; conditions: 0.5 h
Cytochrome P450 2B6 = target: T3, Cytochrome P450 2B6 (Homo sapiens, UniProt P20813); test: Drug metabolism in human liver microsomes assessed as 50 uM orphenadrine-mediated inhibition of CYP2B6-mediated (R)-1-(4-(4-fluoro-2-(hydroxymethyl)-1H-indol-5-yloxy)-5-methylpyrrolo[1,2-f][1,2,4]triazin-6-yloxy)propan-2-ol formation at 2 and 20 uM for 30 mins by LC/MS analysis; conditions: 0.5 h
T3 sequence (P20813 whole entry): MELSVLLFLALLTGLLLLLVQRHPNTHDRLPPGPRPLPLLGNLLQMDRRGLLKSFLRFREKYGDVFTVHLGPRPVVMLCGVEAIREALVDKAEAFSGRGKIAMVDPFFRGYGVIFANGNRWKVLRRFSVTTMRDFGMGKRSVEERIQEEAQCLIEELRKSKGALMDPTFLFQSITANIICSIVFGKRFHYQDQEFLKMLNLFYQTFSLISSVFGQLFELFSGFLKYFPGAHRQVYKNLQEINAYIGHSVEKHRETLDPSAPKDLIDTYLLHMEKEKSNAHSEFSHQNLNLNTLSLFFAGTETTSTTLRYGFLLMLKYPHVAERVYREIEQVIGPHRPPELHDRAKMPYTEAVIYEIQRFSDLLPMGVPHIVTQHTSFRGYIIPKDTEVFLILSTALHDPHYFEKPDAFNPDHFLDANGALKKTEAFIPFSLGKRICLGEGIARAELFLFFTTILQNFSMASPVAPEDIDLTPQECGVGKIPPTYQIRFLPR

Sulfotransferase 1B1 = Sulfotransferase 1B1 (Homo sapiens, UniProt O43704); test: Drug metabolism assessed as human SULT1B1-mediated (R)-1-(4-(4-fluoro-2-methyl-1H-indol-5-yloxy)-5-methylpyrrolo[1,2-f][1,2,4]triazin-6-yloxy)propane-2-sulfonic acid formation at 2 and 20 uM for 30 mins by LC/MS analysis in presence of PAPS; conditions: 0.5 h
Chain of Sulfotransferase 1B1 (O43704 whole entry): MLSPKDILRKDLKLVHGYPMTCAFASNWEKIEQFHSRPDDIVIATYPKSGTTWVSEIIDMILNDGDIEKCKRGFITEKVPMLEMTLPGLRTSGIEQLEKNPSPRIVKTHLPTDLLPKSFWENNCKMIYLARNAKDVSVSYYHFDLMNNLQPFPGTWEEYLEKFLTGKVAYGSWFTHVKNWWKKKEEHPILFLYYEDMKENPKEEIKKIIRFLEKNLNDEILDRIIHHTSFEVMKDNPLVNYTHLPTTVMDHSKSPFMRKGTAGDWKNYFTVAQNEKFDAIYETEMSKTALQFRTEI

Sulfotransferase 1A3 = Sulfotransferase 1A3 (Homo sapiens, UniProt P0DMM9); test: Drug metabolism assessed as human SULT1A3-mediated (R)-1-(4-(4-fluoro-2-methyl-1H-indol-5-yloxy)-5-methylpyrrolo[1,2-f][1,2,4]triazin-6-yloxy)propane-2-sulfonic acid formation at 2 and 20 uM for 30 mins by LC/MS analysis in presence of PAPS; conditions: 0.5 h
Chain of Sulfotransferase 1A3 (P0DMM9 whole entry): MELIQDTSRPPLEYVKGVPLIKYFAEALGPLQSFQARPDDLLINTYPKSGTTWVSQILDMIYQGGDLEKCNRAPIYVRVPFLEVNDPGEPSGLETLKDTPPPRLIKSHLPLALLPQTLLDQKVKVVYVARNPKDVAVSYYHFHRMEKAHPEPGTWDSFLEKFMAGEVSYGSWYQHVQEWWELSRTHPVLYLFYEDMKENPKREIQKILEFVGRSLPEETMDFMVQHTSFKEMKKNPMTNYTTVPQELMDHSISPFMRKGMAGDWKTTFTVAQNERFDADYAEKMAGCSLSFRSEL

Cytochrome P450 2C8 = target: T4, Cytochrome P450 2C8 (Homo sapiens, UniProt P10632); test: Drug metabolism assessed as human CYP2C8-mediated (R)-1-(4-(4-fluoro-2-(hydroxymethyl)-1H-indol-5-yloxy)-5-methylpyrrolo[1,2-f][1,2,4]triazin-6-yloxy)propan-2-ol formation at 2 and 20 uM for 20 mins by LC/MS analysis in presence of NADPH; conditions: recombinant enzyme
T4 sequence (P10632 whole entry): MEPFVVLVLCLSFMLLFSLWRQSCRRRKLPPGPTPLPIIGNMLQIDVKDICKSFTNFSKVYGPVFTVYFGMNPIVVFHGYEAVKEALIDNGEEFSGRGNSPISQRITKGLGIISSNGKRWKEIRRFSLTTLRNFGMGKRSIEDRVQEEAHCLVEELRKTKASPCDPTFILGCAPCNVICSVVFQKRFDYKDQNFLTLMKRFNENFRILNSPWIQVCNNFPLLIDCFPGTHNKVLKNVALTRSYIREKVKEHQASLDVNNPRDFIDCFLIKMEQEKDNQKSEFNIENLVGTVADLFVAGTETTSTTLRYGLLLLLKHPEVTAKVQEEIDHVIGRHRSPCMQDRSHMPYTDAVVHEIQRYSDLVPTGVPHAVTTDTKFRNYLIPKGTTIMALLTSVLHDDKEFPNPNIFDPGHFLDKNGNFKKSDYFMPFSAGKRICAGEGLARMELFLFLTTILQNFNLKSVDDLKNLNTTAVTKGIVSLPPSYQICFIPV

Drug metabolism (Cytochrome P450 1B1): metabolite_detected
Drug metabolism (Cytochrome P450 2D6 [1]): metabolite_detected
Drug metabolism (Cytochrome P450 2C19): metabolite_detected
Drug metabolism (Cytochrome P450 1A2): metabolite_detected
Vmax [2]: 89.1 pmol/min
Drug metabolism (Cytochrome P450 2D6 [3]): metabolite_detected
Drug metabolism (Cytochrome P450 2B6): metabolite_detected
Drug metabolism (Sulfotransferase 1B1): metabolite_detected
Drug metabolism (Sulfotransferase 1A3): metabolite_detected
Drug metabolism (Cytochrome P450 2C8): metabolite_detected
SMILES: Cc1cc2c(F)c(Oc3ncnn4cc(OC[C@@H](C)O)c(C)c34)ccc2[nH]1 [BRIVANIB]
